Source: patent publication US20070225170A1, “2-Halo-6-Alkylphenyl-Substituted Tetramic Acid Derivatives” (BAYER CROPSCIENCE AKTIENGESELLSCHAFT, priority 2003, published 2007)

Key:
[1] = test system: greenhouse red spider mite (Tetranychus urticae); test: Tetranychus test (OP-resistant/spray treatment); type: in vivo
Procedure: Tetranychus Test (OP-Resistant/Spray Treatment)
To produce a suitable preparation of active compound, 1 part by weight of active compound is mixed with the stated amounts of solvents and emulsifier, and the concentrate is diluted with emulsifier-containing water to the desired concentration.
Discs of bean leaves (Phaseolus vulgaris), which are infested by all stages of the greenhouse red spider mite (Tetranychus urticae), are sprayed with a preparation of active compound of the desired concentration.
After the desired period of time, the activity in % is determined. 100% means that all spider mites have been killed; 0% means that none of the spider mites have been killed.

[2] = test system: larvae of the mustard beetle (Phaedon cochleariae); test: Phaedon test (spray treatment); type: in vivo; details: 100 g/ha
Procedure: Phaedon Test (Spray Treatment) To produce a suitable preparation of active compound, 1 part by weight of active compound is mixed with the stated amounts of solvents and emulsifier, and the concentrate is diluted with emulsifier-containing water to the desired concentration. Discs of Chinese cabbage (Brassica pekinensis) are sprayed with a preparation of active compound of the desired concentration and, after they have dried, populated with larvae of the mustard beetle (Phaedon cochleariae).

Setaria = test: Herbicidal post-emergence action, greenhouse; type: in vivo; details: 320 g of a.i./ha
Procedure: (§1) Herbicidal Post-Emergence Action
(§2) Seeds of monocotyledonous and dicotyledonous weed and crop plants are placed into sandy loam in wood fibre pots, covered with soil and cultivated in a greenhouse under good growth conditions. 2-3 weeks after sowing, the test plants are treated at the one-leaf stage. The test compounds, formulated as wettable powders (WP), are, in various dosages with a water application rate of 600 l/ha (converted), with 0.2% of wetting agent added, sprayed onto the green parts of the plants. After the test plants were kept in the greenhouse under optimum growth conditions for about 3 weeks, the effect of the preparations is rated visually in comparison to untreated controls (herbicidal effect in percent (%): 100% effect=the plants have died, 0% effect=like control plants).

Sinapis = test: Herbicidal post-emergence action, greenhouse; type: in vivo; details: 320 g of a.i./ha, greenhouse (T22)
Procedure: as §1, §2

Avena sativa = test: Herbicidal post-emergence action, greenhouse; type: in vivo; details: 320 g of a.i./ha, greenhouse (T22-T24)
Procedure: as §1, §2

Lolium = test: Herbicidal post-emergence action, greenhouse; type: in vivo; details: 320 g of a.i./ha
Procedure: as §1, §2

Summer barley = test: Container trials with cereals in the greenhouse, without/with safener; details: in vivo
Amaranthus = test: Herbicidal post-emergence action, greenhouse; type: in vivo; details: 320 g of a.i./ha, second series (T27, T28)
Procedure: as §1, §2

Stellaria = test: Herbicidal post-emergence action, greenhouse; type: in vivo; details: 320 g of a.i./ha
Procedure: as §1, §2

Summer wheat = test: Container trials with cereals in the greenhouse, without/with safener; details: in vivo
Meloidogyne incognita = test: Meloidogyne test; type: in vivo; details: 20 ppm; nematicidal action by formation of galls on lettuce roots
Procedure: To produce a suitable preparation of active compound, 1 part by weight of active compound is mixed with the stated amounts of solvent and emulsifier, and the concentrate is diluted with water to the desired concentration.
Vessels are filled with sand, solution of active compound, Meloidogyne incognita egg/larvae suspension and lettuce seeds. The lettuce seeds germinate and the plants develop. On the roots, galls develop.
After the desired period of time, the nematicidal action is determined in % by the formation of galls. 100%, means that no galls have been found; 0% means that the number of galls on the treated plants corresponds to that of the untreated control.

[3] = greenhouse, second series (T25-T28)
[4] = greenhouse, second series (T26, T28)

Row | SMILES | Kill rate in % after 5d ([1]; 100 g/ha) | Kill rate in % after 7d [2] | herbicidal effect, Setaria (Setaria; greenhouse (T22-T24)) | herbicidal effect, Sinapis (Sinapis) | herbicidal effect, Avena sativa (Avena sativa) | herbicidal effect, Lolium (Lolium; greenhouse (T22-T24)) | Kill rate in % after 5d ([1]; 500 g/ha) | Summer barley observed (%) (Summer barley) | herbicidal effect, Setaria (Setaria; [3]) | herbicidal effect, Amaranthus (Amaranthus) | herbicidal effect, Lolium (Lolium; [3]) | herbicidal effect, Stellaria (Stellaria; [4]) | Summer wheat observed (%) (Summer wheat) | Effect in % after 14d (Meloidogyne incognita) | herbicidal effect, Stellaria (Stellaria; greenhouse (T23))
1 | CCc1cc(C)cc(Br)c1C1=C(O)C(CC)N(C)C1=O (centres unmarked) [I-a-6] | 80% | 100% | 100% | 70% | 80% | 100% |  |  |  |  |  |  |  |  | 
2 | CCOC(=O)OC1=C(c2c(Br)cc(C)cc2CC)C(=O)N(CC)C1C (centres unmarked) [I-c-7] |  |  | 100% |  | 80% | 90% | 90% | 10% |  |  |  |  |  |  | 
3 | CCc1cc(C)cc(Br)c1C1=C(OC(=O)C(C)(C)C)C2CCCN2C1=O (centres unmarked) [I-b-1] |  |  | 90% |  | 90% | 90% |  |  | 100% | 70% | 100% |  |  |  | 
4 | CCc1cc(C)cc(Br)c1C1=C(O)CN(C2CC2)C1=O [I-a-7] |  | 100% | 100% | 70% | 90% | 100% |  |  | 80% |  | 100% | 80% |  |  | 
5 | CCc1cc(C)cc(Br)c1C1=C(O)C(C)N(CC)C1=O (centres unmarked) [I-a-5] | 90% |  | 100% |  | 80% | 90% |  |  |  |  |  |  |  |  | 
6 | CCOC(=O)OC1=C(c2c(Br)cc(C)cc2CC)C(=O)N(C)C1CC (centres unmarked) [I-c-6] | 70% |  | 100% |  | 80% | 90% |  |  | 80% |  | 80% | 70% | 15% |  | 
7 | CCc1cc(C)cc(Br)c1C1=C(OC(=O)C(C)C)C(C)(C)NC1=O [I-b-2] |  |  | 100% | 70% | 90% | 100% |  |  |  |  |  |  |  |  | 
8 | CCc1cc(C)cc(Br)c1C1=C(O)C2CCCN2C1=O (centres unmarked) [I-a-1] |  |  | 90% |  | 90% | 100% |  |  | 90% | 100% | 90% | 70% |  | 80% | 70%
